Values quoted from earlier work in patent publication US12637369B2, “Method for selectively removing perfluorinated compounds with electrooxidation” (SK hynix Inc., priority 2021, dated 2026).
≈ marks a conversion by molar mass, not a printed value.

Experiments:
[1] = not given; remark: listed apart in the source

For O=S(=O)(O)C(F)(F)C(F)(F)C(F)(F)C(F)(F)F [PFBS, Perfluorobutane sulfonic acid], the Solubility in water is listed as “Very high” and the pKa [1] is listed as −3.94.

In the case of O=S(=O)(O)C(F)(F)C(F)(F)C(F)(F)C(F)(F)C(F)(F)C(F)(F)C(F)(F)C(F)(F)F [PFOS, Perfluorooctane sulfonic acid], the Solubility in water is given as 570 µg/mL (≈ 1.14 mM) and the pKa [1] is given as −3.27.

For O=C(O)C(F)(F)C(F)(F)C(F)(F)C(F)(F)C(F)(F)C(F)(F)C(F)(F)F [PFOA, Perfluorooctanoic acid], the Solubility in water is listed as 3400 µg/mL (≈ 8.21 mM).

For O=C(O)C(F)(F)C(F)(F)C(F)(F)C(F)(F)C(F)(F)C(F)(F)C(F)(F)C(F)(F)F [PFNA, Perfluorononanoic acid], the Solubility in water is given as 9500 µg/mL (≈ 20.5 mM) and the pKa [1] is given as 2-3.
